Source: ChEMBL document CHEMBL5215005, “Discovery of Efrotomycin Congeners and Heterologous Expression-Based Insights into the Self-Resistance Mechanism” (2022)
≈ marks a conversion by molar mass, not a printed value.

Assays:
Assay type in all cases: functional
Streptomyces albus = test: Antibacterial activity against Streptomyces albus Del14 assessed as inhibition zone at 10 ug incubated for 2 days by disc diffusion assay; settings: Del14, 48 h, time 2 day, read-out: IZ
Micrococcus luteus = test: Antibacterial activity against Micrococcus luteus SCSIO ML01 by Mueller-Hinton broth microdilution method
Streptomyces coelicolor = test: Antibacterial activity against Streptomyces coelicolor YF11 assessed as inhibition zone at 10 ug incubated for 2 days by disc diffusion assay; settings: YF11, 48 h, time 2 day, read-out: IZ
Streptomyces lividans = test: Antibacterial activity against Streptomyces lividans SBT18 assessed as inhibition zone at 10 ug incubated for 2 days by disc diffusion assay; settings: SBT18, 48 h, time 2 day, read-out: IZ

Row | SMILES | MIC (Micrococcus luteus) [µg/mL] | zone of inhibition at 10 µg/disc (Streptomyces albus) [mm] | zone of inhibition at 10 µg/disc (Streptomyces coelicolor) [mm] | zone of inhibition at 10 µg/disc (Streptomyces lividans) [mm]
1 | C/C=C\C=C\[C@@H]1O[C@](O)([C@@H](CC)C(=O)NC/C=C/C=C(\C)[C@H](OC)[C@H](C)[C@@H]2O[C@H](/C=C/C=C/C=C(\C)C(=O)c3c(O)ccn(C)c3=O)[C@@H](O)[C@H]2O)[C@H](O)[C@H](O[C@H]2O[C@@H](C)[C@H](O[C@@H]3O[C@@H](C)[C@H](O)[C@@H](O)[C@H]3OC)[C@H](OC)[C@@H]2O)C1(C)C | 8 (≈ 7.07 µM) | 15 | – | –
2 | C/C=C\C=C\[C@@H]1O[C@](O)([C@H](CC)C(=O)NC/C=C/C=C(\C)[C@@H](OC)[C@@H](C)[C@H](O)[C@@H](O)\C=C/C=C/C=C/C=C(\C)C(=O)c2c(O)ccn(C)c2=O)[C@H](O)[C@H](O)C1(C)C | 8 (≈ 10.1 µM) | 15 | 8 | 8

Second part, led by results:

Row | MIC (Micrococcus luteus) [µg/mL] | SMILES | zone of inhibition at 10 µg/disc (Streptomyces albus) [mm] | zone of inhibition at 10 µg/disc (Streptomyces coelicolor) [mm] | zone of inhibition at 10 µg/disc (Streptomyces lividans) [mm]
3 | 8 (≈ 7.17 µM) | C/C=C\C=C\[C@@H]1O[C@](O)([C@H](CC)C(=O)NC/C=C/C=C(\C)[C@@H](OC)[C@@H](C)[C@H](O)[C@@H](O)/C=C/C=C/C=C/C=C(\C)C(=O)c2c(O)ccn(C)c2=O)[C@H](O)[C@H](O[C@H]2O[C@@H](C)[C@H](O[C@@H]3O[C@@H](C)[C@H](O)[C@@H](O)[C@H]3OC)[C@H](OC)[C@@H]2O)C1(C)C | 15 | – | –
4 | 8 (≈ 7.07 µM) | C/C=C\C=C\[C@@H]1O[C@](O)([C@@H](CC)C(=O)NC/C=C/C=C(\C)[C@H](OC)[C@H](C)[C@@H]2O[C@H](/C=C/C=C/C=C(\C)C(=O)c3c(O)ccn(C)c3=O)[C@H](O)[C@H]2O)[C@H](O)[C@H](O[C@H]2O[C@@H](C)[C@H](O[C@@H]3O[C@@H](C)[C@H](O)[C@@H](O)[C@H]3OC)[C@H](OC)[C@@H]2O)C1(C)C | 15 | – | –
5 | 8 (≈ 7.17 µM) | C/C=C\C=C\[C@@H]1O[C@](O)([C@H](CC)C(=O)NC/C=C/C=C(\C)[C@@H](OC)[C@@H](C)[C@H](O)[C@@H](O)\C=C/C=C/C=C/C=C(\C)C(=O)c2c(O)ccn(C)c2=O)[C@H](O)[C@H](O[C@H]2O[C@@H](C)[C@H](O[C@@H]3O[C@@H](C)[C@H](O)[C@@H](O)[C@H]3OC)[C@H](OC)[C@@H]2O)C1(C)C | 15 | 8 | 8
